# Reference: patent publication US20240391892A1, “A SMALL MOLECULE COMPOUND AND ITS USE AND PREPARATION METHOD” (SHANGHAI COACHCHEM TECHNOLOGY CO., LTD, priority 2022, published 2024)
# “And” between values parts separate entries of the source, which are not always exact repeats. Identical values can stand only once.
# Columns and labels:
# [1] = In vitro DPPH free radical scavenging test; format: biochemical; set-up: DPPH Free Radical Scavenging Rate (%v/v): unit not given here; details: for DPPH Free Radical Scavenging Rate (%): replicate wells; for DPPH Free Radical Scavenging Rate (%v/v): mean ± SD
# From the text: The DPPH radical scavenging assay is an in vitro method used to evaluate antioxidant activity. DPPH is a stable free radical in organic solvents and appears purple in methanol or ethanol, with maximum absorption at a wavelength of 517 nm. The DPPH assay is based on the ability of an antioxidant to donate an electron to the DPPH radical, converting its purple color to yellow. The degree of absorbance change at 517 nm corresponds to the extent of the free radical scavenging activity, meaning the stronger the scavenging ability of the antioxidant, the lower the absorbance.
# Using ascorbic acid (VC) as a system reference, dilute it with PBS to obtain five concentrations: 12.5, 25, 50, 100, and 200 μg/mL. Perform the test and calculations according to the procedure outlined in 3.3.2. Plot the reference curve with the concentration of the reference substance on the x-axis and the DPPH free radical scavenging rate on the y-axis.
# Prepare the samples into the respective concentrations of test solutions. Prepare the reaction system by adding the specified amount of each reagent mentioned in Table 1, mix thoroughly. For each concentration, set up three replicate wells and one blank control well.
# The reaction system is placed at room temperature and allowed to react in the dark for 30 minutes. After the reaction is complete, the absorbance (OD value) is measured at 515 nm. The formula to calculate the scavenging rate of the sample against DPPH free radicals is as follows:
# [formula] [formula] • Where: • C1=Absorbance value of the blank with DPPH • C2=Absorbance value of the blank without DPPH • T1=Absorbance value of the sample with DPPH • T2=Absorbance value of the sample without DPPH
# [2] = test system: HaCat cells; experiment: Intracellular ROS scavenging test in UVB-irradiated HaCat cells; format: cell-based, human; details: UVB 20 mJ/cm2, 24 hours incubation, vs UVB control, p<0.001
# Description: Among these factors, UV radiation stands as the most significant contributor. Skin exposed to UV radiation generates an excess of reactive oxygen species (ROS) within cells, triggering the expression of genes related to aging, instigating an inflammatory cascade, and reducing the expression of elastin and collagen proteins, leading to manifestations of photoaging like skin laxity and wrinkles. Photoaging predominantly occurs in the dermis.
# UVB irradiation is administered to immortalized human keratinocytes (HaCat cells) to induce intracellular reactive oxygen species (ROS) generation. The UVB dose applied to HaCat cells is 20 mJ/cm2. Following the UVB treatment, varying concentrations of Retinyl 4-t-Butylcyclohexanol test samples are added to the cells and incubated for 24 hours. ROS levels within the cells are assessed using a ROS detection kit.
# Graph Pad Prism was used for statistical plotting, and the results were presented as Mean±SD. Statistical analysis was conducted using the t-test. A significance level of p<0.05 was considered statistically significant, where *p<0.05, ** p<0.0 1 (0.005<** p<0.01), and *** p<0.001, indicating increased significance as the p-value decreases. When employing the t-test for statistical analysis, the comparison between the UVB control group and the Control group was represented as # (p<0.001 indicated as ###). […]
# [3] = Stability test under light and temperature, content by HPLC-DAD; format: physicochemical
# Description: To compare the stability of Retinyl-trans-4-tert-Butylcyclohexanol and retinol […] under different conditions.
# A certain amount of retinol and Retinyl-trans-4-tert-Butylcyclohexanol is taken and placed under conditions of light exposure, 4° C., 25° C., 45° C., and 50° C. for 28 days. Samples are periodically collected to determine their content and examine the influence of light and temperature on their stability.
# High-Performance Liquid Chromatography with Diode Array Detection (HPLC-DAD), Electronic Balance (precision of 0.01 mg), Chromatographic Column (Welch Ultimate series XB-C18 column, 250 mm*4.6 mm, 5 μm), Several volumetric flasks.
# Accurately weigh approximately 0.1g of Retinyl-trans-4-tert-Butylcyclohexanol samples obtained under conditions of light exposure, 4° C., 25° C., 45° C., and 50° C. into a 100 mL brown volumetric flask. Add an appropriate amount of acetonitrile while avoiding light, ultrasonicate, dilute to the mark, shake well, and prepare two parallel samples for each condition.
# Accurately weigh approximately 0.1 g of retinol samples obtained under conditions of light exposure, 4° C., 25° C., 45° C., and 50° C. into a 100 mL brown volumetric flask. Add an appropriate amount of acetonitrile while avoiding light, ultrasonicate, dilute to the mark, shake well, and prepare two parallel samples for each condition.
# Operate according to the procedures for high-performance liquid chromatography (HPLC) usage and maintenance: • I) Run the blank solvent, inject 2 times, record the chromatogram for up to 30 minutes; • II) Run at least 3 injections of the control solution 1, record the chromatogram for up to 30 minutes; • III) Run the control solution 2, inject 2 times, record the chromatogram for up to 30 minutes; • IV) Inject 2 samples of the test solution, record the chromatogram for up to 30 minutes; • V) Adjust the chromatogram scale, integrate, and print. […]
Compound,DPPH Free Radical Scavenging Rate (%) ([1]; concentration 12.5 μg/mL),DPPH Free Radical Scavenging Rate (%) ([1]; concentration 25 μg/mL),DPPH Free Radical Scavenging Rate (%) ([1]; concentration 50 μg/mL),DPPH Free Radical Scavenging Rate (%) ([1]; concentration 100 μg/mL),DPPH Free Radical Scavenging Rate (%) ([1]; concentration 200 μg/mL),UVB-induced intracellular ROS levels [2],"DPPH free radical scavenging compared to the control group ([1]; concentrations 0.02% to 4%, p<0.001)",DPPH Free Radical Scavenging Rate (%v/v) ([1]; sample concentration 0.02 %v/v),DPPH Free Radical Scavenging Rate (%v/v) ([1]; sample concentration 0.1 %v/v),DPPH Free Radical Scavenging Rate (%v/v) ([1]; sample concentration 0.5 %v/v),DPPH Free Radical Scavenging Rate (%v/v) ([1]; sample concentration 2 %v/v),DPPH Free Radical Scavenging Rate (%v/v) ([1]; sample concentration 4 %v/v),Content after storage ([3]; 28 days at 4° C.),Content after storage ([3]; 28 days at room temperature),"Stability compared with retinol ([3]; light exposure, room temperature, 45° C. and 50° C., 28 days, not at 4° C.)"
O=C1O[C@H]([C@@H](O)CO)C(O)=C1O [ascorbic acid],20.55% and 18.55% and 20.32%,30.26% and 31.17% and 32.98%,64.58% and 65.09% and 62.73%,101.32% and 95.11% and 97.07%,101.28% and 92.01% and 108.75%,–,–,–,–,–,–,–,–,–,–
"CC1=C(/C=C/C(C)=C/C=C/C(C)=C/C(=O)O[C@H]2CC[C@H](C(C)(C)C)CC2)C(C)(C)CCC1 [Retinyl 4-trans-t-Butylcyclohexanol, retinoic acid trans-4-tert-butylcyclohexyl ester]",–,–,–,–,–,effectively reduced,statistically significant increase,9.87 ± 3.44,15.91 ± 1.25,36.72 ± 1.98,48.12 ± 1.07,83.96 ± 1.22,above 98%,above 98%,significantly higher
